Test results published in PMC8067507, “Aryl Urea Based Scaffolds for Multitarget Drug Discovery in Anticancer Immunotherapies” (Pharmaceuticals, 2021).

How the values were obtained:
[1] = system: HMEC-1 (human microvascular endothelial cells); test: Cell proliferation assay (MTT); type: cell-based; conditions: HMEC-1, 48 h, 2 days incubation, average ± SD of three experiments
From the text: (§1) The ability of Ureas 13–33 to inhibit cell proliferation was established by means of their IC50 values towards the human tumor cell lines HT-29 (colon adenocarcinoma), MCF-7 (breast adenocarcinoma), HeLa (epithelioid cervix carcinoma) and A549 (pulmonary adenocarcinoma), as well as towards the endothelial cell line HMEC-1 (human microvascular endothelial cells) and the non-tumor cell line HEK-293 (human embryonic kidney cells).
(§2) HT-29, MCF-7, HeLa, A549 and HEK-293 cell lines were maintained in Dulbecco’s modified Eagle’s medium (DMEM) containing glucose (1 g/L), glutamine (2 mM), penicillin (50 μg/mL), streptomycin (50 μg/mL), and amphotericin B (1.25 μg/mL), supplemented with 10% FBS. HMEC-1 cell line was maintained in Dulbecco’s modified Eagle’s medium (DMEM)/low glucose containing glutamine (2 mM), penicillin (50 μg/mL), streptomycin (50 μg/mL), and amphotericin B (1.25 μg/mL), supplemented with 10% FBS. For the development of tube formation assays in Matrigel, HMEC-1 cells were cultured in EGM-2MV Medium supplemented with EGM-2MV SingleQuots.
(§3) In 96-well plates, 3 × 10^3 (HeLa, A549, HMEC-1, HEK-293) or 5 × 10^3 (HT-29, MCF-7) cells per well were incubated with serial dilutions of the tested compounds in a total volume of 100 μL of their respective growth media. The 3-(4,5-dimethylthiazol-2-yl)-2,5-diphenyltetrazolium bromide (MTT; Sigma Chemical Co.) dye reduction assay in 96-well microplates was used. After 2 days of incubation (37 °C, 5% CO2 in a humid atmosphere), 10 μL of MTT (5 mg/mL in phosphate-buffered saline, PBS) was added to each well, and the plate was incubated for a further 3 h (37 °C). After that, the supernatant was discarded and replaced by 100 µL of DMSO to dissolve formazan crystals. The absorbance was then read at 540 nm by spectrophotometry. For all concentrations of compound, cell viability was expressed as the percentage of the ratio between the mean absorbance of treated cells and the mean absorbance of untreated cells. Three independent experiments were performed, and the IC50 values (i.e., concentration half inhibiting cell proliferation) were graphically determined using GraphPad Prism 4 software.

[2] = system: HEK-293 (human embryonic kidney cells); test: Cell proliferation assay (MTT); type: cell-based; conditions: HEK293, 48 h, 2 days incubation, average ± SD of three experiments
From the text: as §1, §2, §3

[3] = system: HeLa (epithelioid cervix carcinoma); test: Cell proliferation assay (MTT); type: cell-based; conditions: Homo sapiens, 48 h, 2 days incubation, average ± SD of three experiments
From the text: as §1, §2, §3

[4] = system: MCF-7 (breast adenocarcinoma); test: Cell proliferation assay (MTT); type: cell-based; conditions: Homo sapiens, MCF7, 48 h, 2 days incubation, average ± SD of three experiments
From the text: as §1, §2, §3

[5] = system: A549 (pulmonary adenocarcinoma); test: Cell proliferation assay (MTT); type: cell-based; conditions: Homo sapiens, A549, 48 h, 2 days incubation, average ± SD of three experiments
From the text: as §1, §2, §3

[6] = system: HT-29 (colon adenocarcinoma); test: Cell proliferation assay (MTT); type: cell-based; conditions: Homo sapiens, HT-29, 48 h, 2 days incubation, average ± SD of three experiments
From the text: as §1, §2, §3

PD-L1 [7] = molecular target: T1, PD-L1 (Homo sapiens, UniProt Q9NZQ7); test: PD-L1 quantification by flow cytometry in HT-29; type: cell-based; conditions: HT-29, 10 μM, 24 h, referred to control (DMSO)
Description: (§4) We evaluated the effect of the selected compounds on PD-L1 and on c-Myc proteins by flow cytometry after 24 h treatment at 10 μM concentration of compounds. Both, PD-L1 and c-Myc were relatively determined using DMSO treated cells as a negative control and BMS-8 as a positive one.
(§5) For the detection of total PD-L1 and c-Myc, cancer cells were seeded (3 × 10^5 cells/well) in 6-well plates and were incubated with the corresponding compounds for 24 h. Then they were collected, fixed, treated with 0.5% Triton^TM X-100 and stained with Alexa Fluor® 647 Rabbit monoclonal Anti-PD-L1 (ab215251) and FITC Rabbit monoclonal anti-c-Myc (ab223913).
(§6) We also checked results performing ELISA tests. For ELISA tests, lysates were collected, protein quantification was carried out by Bradford test and, then, PD-L1 and c-Myc were quantified using Human PD-L1 ELISA Kit 28-8 (ab214565) and c-Myc (Total) Human ELISA Kit (KHO2041), respectively, according to the manufacturer’s instructions.

c-Myc [8] = test: c-Myc quantification by flow cytometry in HT-29; type: cell-based, human; conditions: HT-29, 10 μM, 24 h, referred to control (DMSO)
Description: as §4, §5, §6

VEGFR-2 [9] = molecular target: T2, VEGFR-2 (Homo sapiens, UniProt P35968); test: VEGFR-2 quantification by flow cytometry in HMEC-1; type: cell-based; design: Both membrane and total VEGFR-2 were relatively determined using dimethyl sulfoxide (DMSO) treated cells as a negative control; endogenous in cells; host or cells: HMEC-1 (human microvascular endothelial cells); conditions: 10 µM, 24 h, relative to DMSO control
Description: (§7) We performed the study on both a HT-29 cancer cell line and a human microvessel endothelial cell line (HMEC-1). […] The effect of these selected derivatives on VEGFR-2, on HT-29 tumor cell line and on human microvessel endothelial cells (HMEC) was determined by flow cytometry technique. […] For these assays, cells were incubated for 24 h in the presence of the corresponding compounds at 10 µM concentration.

VEGFR-2 [10] = molecular target: T2, VEGFR-2; test: VEGFR-2 quantification by flow cytometry in HT-29; type: cell-based; design: Both membrane and total VEGFR-2 were relatively determined using dimethyl sulfoxide (DMSO) treated cells as a negative control; endogenous in cells; host or cells: HT-29 (colon adenocarcinoma) and HMEC-1 (human microvascular endothelial cells); conditions: HT-29, 10 µM, 24 h, relative to DMSO control
Description: as §7

PD-L1 [11] = molecular target: T1, PD-L1; test: PD-L1 quantification by flow cytometry in A-549; type: cell-based; design: endogenous in cells; host or cells: A-549 cancer cells; conditions: A-549, 10 μM, 24 h, referred to control (DMSO)
Description: as §4, §5, §6

c-Myc [12] = test: c-Myc quantification by flow cytometry in A-549; type: cell-based, human; conditions: A-549, 10 μM, 24 h, referred to control (DMSO)
Description: as §4, §5, §6

T2 sequence (P35968 20-1356): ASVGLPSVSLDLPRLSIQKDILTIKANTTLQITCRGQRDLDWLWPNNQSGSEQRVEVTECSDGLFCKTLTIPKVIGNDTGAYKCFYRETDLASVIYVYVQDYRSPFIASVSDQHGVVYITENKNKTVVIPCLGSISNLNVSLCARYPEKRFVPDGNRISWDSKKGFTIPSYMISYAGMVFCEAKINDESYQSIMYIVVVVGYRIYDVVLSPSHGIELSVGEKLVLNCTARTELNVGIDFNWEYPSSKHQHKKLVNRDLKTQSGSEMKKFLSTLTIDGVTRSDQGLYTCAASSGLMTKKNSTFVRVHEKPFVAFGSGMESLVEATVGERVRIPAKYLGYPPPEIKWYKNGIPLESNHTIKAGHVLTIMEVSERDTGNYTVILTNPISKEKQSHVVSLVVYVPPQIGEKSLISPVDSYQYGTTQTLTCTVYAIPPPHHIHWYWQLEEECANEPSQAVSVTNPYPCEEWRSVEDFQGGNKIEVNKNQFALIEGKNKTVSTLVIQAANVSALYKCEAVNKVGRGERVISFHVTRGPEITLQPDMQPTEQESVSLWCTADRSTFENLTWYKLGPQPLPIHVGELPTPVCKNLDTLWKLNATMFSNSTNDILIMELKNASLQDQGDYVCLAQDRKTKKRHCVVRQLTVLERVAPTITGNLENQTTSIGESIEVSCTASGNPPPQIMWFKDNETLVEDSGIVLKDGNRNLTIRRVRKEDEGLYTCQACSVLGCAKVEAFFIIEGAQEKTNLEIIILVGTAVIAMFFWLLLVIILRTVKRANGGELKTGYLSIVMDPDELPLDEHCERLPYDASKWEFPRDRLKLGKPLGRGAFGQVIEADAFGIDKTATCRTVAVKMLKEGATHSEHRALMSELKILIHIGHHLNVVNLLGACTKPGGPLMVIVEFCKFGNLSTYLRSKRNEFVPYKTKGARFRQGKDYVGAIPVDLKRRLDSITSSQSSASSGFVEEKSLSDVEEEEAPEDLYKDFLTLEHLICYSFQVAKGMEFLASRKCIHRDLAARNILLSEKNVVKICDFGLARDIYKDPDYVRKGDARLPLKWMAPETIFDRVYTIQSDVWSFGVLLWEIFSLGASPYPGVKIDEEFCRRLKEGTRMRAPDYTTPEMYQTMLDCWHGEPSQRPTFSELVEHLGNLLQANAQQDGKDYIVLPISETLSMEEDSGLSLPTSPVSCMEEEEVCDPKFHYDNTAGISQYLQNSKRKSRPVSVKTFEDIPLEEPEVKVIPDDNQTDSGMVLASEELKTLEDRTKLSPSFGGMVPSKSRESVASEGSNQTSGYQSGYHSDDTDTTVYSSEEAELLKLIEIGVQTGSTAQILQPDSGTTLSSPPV
T1 sequence (Q9NZQ7 19-290): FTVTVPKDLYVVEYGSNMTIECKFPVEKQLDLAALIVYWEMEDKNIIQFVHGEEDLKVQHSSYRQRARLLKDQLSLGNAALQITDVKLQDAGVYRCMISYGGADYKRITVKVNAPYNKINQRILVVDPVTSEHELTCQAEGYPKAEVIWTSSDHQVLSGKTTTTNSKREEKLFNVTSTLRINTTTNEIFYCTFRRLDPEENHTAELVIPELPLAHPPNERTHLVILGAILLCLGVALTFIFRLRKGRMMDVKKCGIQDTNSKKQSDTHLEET

| IC50 [3] [µM] | IC50 [4] [µM] | IC50 [5] [µM] | IC50 [6] [µM] | PD-L1 (%) relative expression (PD-L1 [7]) [%] | Membrane VEGFR-2 (%) (VEGFR-2 [9]) | Total VEGFR-2 (%) (VEGFR-2 [9]) | Membrane VEGFR-2 (%) (VEGFR-2 [10]) | Total VEGFR-2 (%) (VEGFR-2 [10]) | PD-L1 (%) relative expression (PD-L1 [11]) [%] | Compound | IC50 [1] [µM] | IC50 [2] [µM] | c-Myc (%) relative expression (c-Myc [8]) [%] | c-Myc (%) relative expression (c-Myc [12]) [%] |
| --- | --- | --- | --- | --- | --- | --- | --- | --- | --- | --- | --- | --- | --- | --- |
| 1.7 ± 0.4 | 1.6 ± 0.3 | 3 ± 1 | 1.6 ± 0.2 | – | – | – | – | – | – | COc1ccc(/C=C/c2cccc(NC(=O)Nc3ccccc3Br)c2)cc1 [Compound 21] | 1.9 ± 0.4 | 2 ± 0.2 | – | – |
| 24 ± 2 | 10 ± 5 | 24 ± 5 | 57 ± 6 | – | – | – | – | – | – | COc1ccc(CCc2cccc(NC(=O)Nc3ccccc3OC)c2)cc1 [Compound 31] | > 100 | 13.8 ± 0.8 | – | – |
| 5 ± 2 | 8 ± 3 | 12 ± 2 | 14 ± 3 | 36 ± 9 | 98 ± 8 | 99 ± 16 | 88 ± 14 | 97 ± 7 | 98 ± 10 | COc1ccc(/C=C\c2cccc(NC(=O)Nc3ccc(OC)cc3)c2)cc1 [Compound 19] | 11 ± 1 | 10 ± 1 | 47 ± 8 | 79 ± 10 |
| 9 ± 4 | 3.6 ± 0.6 | 11 ± 5 | 11 ± 4 | – | – | – | – | – | – | COc1ccc(/C=C/c2cccc(NC(=O)Nc3ccccc3OC)c2)cc1 [Compound 24] | 7.2 ± 0.6 | 3.5 ± 0.8 | – | – |
| 4 ± 3 | 5 ± 4 | 7 ± 4 | 7.9 ± 0.5 | – | – | – | – | – | – | COc1ccc(CCc2cccc(NC(=O)Nc3ccccc3Br)c2)cc1 [Compound 28] | 5 ± 3 | 1.7 ± 0.2 | – | – |
| 27 ± 1 | 25 ± 4 | 18 ± 3 | 22 ± 2 | 55 ± 11 | 69 ± 8 | 98 ± 13 | 76 ± 5 | 93 ± 10 | 59 ± 9 | COc1ccc(CCc2cccc(NC(=O)Nc3cccc(OC)c3)c2)cc1 [Compound 32] | 7.1 ± 0.8 | 9.7 ± 0.8 | 69 ± 7 | 77 ± 15 |
| 26 ± 3 | 25 ± 10 | 32 ± 14 | 17 ± 2 | – | – | – | – | – | – | COc1ccc(/C=C\c2cccc(NC(=O)Nc3ccccc3Br)c2)cc1 [Compound 14] | 14 ± 2 | 25 ± 3 | – | – |
| 7 ± 0.5 | 1.1 ± 0.2 | 2.2 ± 0.7 | 1.3 ± 0.5 | 69 ± 11 | 59 ± 8 | 96 ± 9 | 99 ± 11 | 94 ± 7 | 59 ± 8 | COc1ccc(/C=C/c2cccc(NC(=O)Nc3cccc(OC)c3)c2)cc1 [Compound 25] | 4.3 ± 0.4 | 4 ± 2 | 74 ± 11 | 68 ± 9 |
| 42 ± 8 | 2.3 ± 0.9 | 1.6 ± 0.3 | 2.5 ± 0.8 | – | – | – | – | – | – | COc1ccc(/C=C/c2cccc(NC(=O)Nc3ccccc3)c2)cc1 [Compound 20] | 4 ± 1 | 15 ± 2 | – | – |
| 32 ± 8 | 30 ± 7 | 34 ± 2 | 24 ± 5 | – | – | – | – | – | – | COc1ccc(/C=C\c2cccc(NC(=O)Nc3ccccc3)c2)cc1 [Compound 13] | 40 ± 5 | 16 ± 3 | – | – |
| 3.7 ± 0.3 | 4 ± 2 | 11 ± 5 | 4.9 ± 0.8 | – | – | – | – | – | – | COc1ccc(CCc2cccc(NC(=O)Nc3ccc(Br)cc3)c2)cc1 [Compound 30] | 1.3 ± 0.1 | 1.3 ± 0.5 | – | – |
| 24 ± 5 | 19 ± 2 | 23 ± 8 | 17 ± 4 | – | – | – | – | – | – | COc1ccc(/C=C\c2cccc(NC(=O)Nc3cccc(OC)c3)c2)cc1 [Compound 18] | 4.3 ± 0.3 | 16 ± 3 | – | – |
| 10.7 ± 0.5 | 10 ± 4 | 13 ± 3 | 11 ± 2 | – | – | – | – | – | – | COc1ccc(CCc2cccc(NC(=O)Nc3cccc(Br)c3)c2)cc1 [Compound 29] | 3.8 ± 0.3 | 7.2 ± 0.4 | – | – |
| 1.5 ± 0.3 | 0.6 ± 0.3 | 4 ± 3 | 0.5 ± 0.2 | – | – | – | – | – | – | COc1ccc(/C=C/c2cccc(NC(=O)Nc3cccc(Br)c3)c2)cc1 [Compound 22] | 1.1 ± 0.2 | 0.7 ± 0.3 | – | – |
| 10 ± 2 | 12.8 ± 0.9 | 12 ± 5 | 9.6 ± 0.6 | – | – | – | – | – | – | COc1ccc(CCc2cccc(NC(=O)Nc3ccccc3)c2)cc1 [Compound 27] | 9 ± 4 | 12.5 ± 0.2 | – | – |
| 15 ± 2 | 15 ± 1 | 18 ± 1 | 15 ± 1 | 60 ± 12 | 99 ± 7 | 97 ± 9 | 47 ± 16 | 98 ± 12 | 79 ± 9 | COc1ccc(/C=C\c2cccc(NC(=O)Nc3ccccc3OC)c2)cc1 [Compound 17] | 10 ± 1 | 27 ± 5 | 58 ± 13 | 45± 9 |
